Measured values taken from ChEMBL document CHEMBL1154525, “Synthesis of 2-amino-5-benzoyl-4-(2-furyl)thiazoles as adenosine A(2A) receptor antagonists” (Bioorg Med Chem Lett, 2009).

Key:
Adenosine receptor A2a = Adenosine receptor A2a (Homo sapiens, UniProt P29274); experiment: Displacement of [3H]SCH-58261 from human recombinant adenosine A2A receptor expressed in HEK293 cells; type: cell-based
Homo sapiens = species: Homo sapiens; experiment: Selectivity ratio of Ki for human recombinant adenosine A1 receptor to Ki for human recombinant adenosine A2A receptor
Adenosine receptor A1 = biological target: T1, Adenosine receptor A1 (Homo sapiens, UniProt P30542); experiment: Displacement of [3H]DPCPX from human recombinant adenosine A1 receptor expressed in CHOK1 cells; type: cell-based, CHO-K1
T1 sequence (P30542 whole entry): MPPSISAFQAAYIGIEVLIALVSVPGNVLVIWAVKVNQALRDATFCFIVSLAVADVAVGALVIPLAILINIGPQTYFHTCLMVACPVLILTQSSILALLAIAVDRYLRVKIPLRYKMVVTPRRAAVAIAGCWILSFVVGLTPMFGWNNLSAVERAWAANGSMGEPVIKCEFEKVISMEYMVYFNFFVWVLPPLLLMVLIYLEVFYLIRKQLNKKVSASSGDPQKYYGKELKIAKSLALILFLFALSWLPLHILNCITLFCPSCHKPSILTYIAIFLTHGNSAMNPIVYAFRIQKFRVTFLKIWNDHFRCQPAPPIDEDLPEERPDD

Sequence of Adenosine receptor A2a (P29274 whole entry): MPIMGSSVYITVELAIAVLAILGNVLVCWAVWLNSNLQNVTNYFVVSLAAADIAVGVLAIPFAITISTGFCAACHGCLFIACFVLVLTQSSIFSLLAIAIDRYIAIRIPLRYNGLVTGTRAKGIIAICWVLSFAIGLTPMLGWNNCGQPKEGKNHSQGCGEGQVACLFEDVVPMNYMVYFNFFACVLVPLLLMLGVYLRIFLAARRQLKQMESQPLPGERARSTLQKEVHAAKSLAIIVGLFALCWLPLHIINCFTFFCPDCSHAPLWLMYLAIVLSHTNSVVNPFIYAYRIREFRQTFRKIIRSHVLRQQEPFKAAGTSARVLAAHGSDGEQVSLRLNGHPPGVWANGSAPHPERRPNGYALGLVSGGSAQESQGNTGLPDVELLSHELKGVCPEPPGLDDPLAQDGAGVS

| Structure (SMILES) | Ki (Adenosine receptor A2a) [nM] | Ratio Ki (Homo sapiens) | Ki (Adenosine receptor A1) [nM] |
| --- | --- | --- | --- |
| O=C(c1ccccc1)c1sc(N(CCc2cccs2)Cc2ccccc2)nc1-c1ccco1 | 7140 | > 1.4 | > 10000 |
| COCCNc1nc(-c2ccco2)c(C(=O)c2ccccc2)s1 | 195 | 35 | 6780 |
| CN(CCc1cccs1)c1nc(-c2ccco2)c(C(=O)c2ccccc2)s1 | 8170 | > 1.2 | > 10000 |
| CN(Cc1ccccc1)c1nc(-c2ccco2)c(C(=O)c2ccccc2)s1 | 2800 | 3.4 | 9460 |
| CC(=O)NCCNc1nc(-c2ccco2)c(C(=O)c2ccccc2)s1 | 281 | 9 | 2420 |
| CN(Cc1ccco1)c1nc(-c2ccco2)c(C(=O)c2ccccc2)s1 | 160 | 21 | 3420 |
| CN(C)c1nc(-c2ccco2)c(C(=O)c2ccccc2)s1 | 6820 | > 1.5 | > 10000 |
| CC(=O)N1CCC(Nc2nc(-c3ccco3)c(C(=O)c3ccccc3)s2)CC1 | 455 | 3 | 1240 |
| COC(C)CNc1nc(-c2ccco2)c(C(=O)c2ccccc2)s1 (configuration not stated) | 154 | 26 | 3970 |

Now those with a lower Ki (Adenosine receptor A2a), led by results:

| Ki (Adenosine receptor A2a) [nM] | Ratio Ki (Homo sapiens) | Ki (Adenosine receptor A1) [nM] | Structure (SMILES) |
| --- | --- | --- | --- |
| 105 | 60 | 6300 | O=C(c1ccccc1)c1sc(NCCCc2ccccc2)nc1-c1ccco1 |
| 105 | 35 | 3710 | O=C(c1ccccc1)c1sc(NC2CCN(C(=O)c3ccccc3F)CC2)nc1-c1ccco1 |
| 89 | 14 | 1280 | CC(C)CNc1nc(-c2ccco2)c(C(=O)c2ccccc2)s1 |
| 88 | > 115 | > 10000 | O=C(c1ccccc1)c1sc(N(Cc2ccccc2)Cc2ccco2)nc1-c1ccco1 |
| 67 | 54 | 3580 | CNc1nc(-c2ccco2)c(C(=O)c2ccccc2)s1 |
| 64 | > 120 | > 7500 | O=C(c1ccccc1)c1sc(NCc2ccc(F)c(F)c2)nc1-c1ccco1 |
| 61 | 58 | 3500 | O=C(c1ccccc1)c1sc(NCCc2ccc3c(c2)OCO3)nc1-c1ccco1 |
| 54 | 56 | 2990 | O=C(c1ccccc1)c1sc(NCc2cccs2)nc1-c1ccco1 |
| 43 | 35 | 1460 | O=C(c1ccccc1)c1sc(NCc2ccco2)nc1-c1ccco1 |
| 12 | > 580 | > 6700 | O=C(c1ccccc1)c1sc(NCCc2cccs2)nc1-c1ccco1 |
